# Measured values reported in patent US7015215B2, “Pyrrolo[2,1-c][1,4] benzodiazepines compounds and process thereof” (Council of Scientific and Industrial Research, priority 2003, dated 2006).
# Experiments:
# NCI-H23 = assay: NCI SRB cytotoxicity, Non-small-cell lung NCI-H23; assay type: cell-based, human; conditions: 48 h
# Method: (§1) Biological Activity: In vitro biological activity studies were carried out at National Cancer Institute (U.S.A.).
# (§2) For each compound, dose response curves for each cell line were measured at a minimum of five concentrations at 10 fold dilutions. A protocol of 48 h continuous drug exposure was used, and a sulforhodamine B (SRB) protein assay was used to estimate cell viability or growth. The concentration causing 50% cell growth inhibition (GI50), total cell growth inhibition (TGI, 0% growth) and 50% cell death (LC50, −50% growth) compared with the control was calculated.
# NCI-H522 = assay: NCI SRB cytotoxicity, Non-small-cell lung NCI-H522; assay type: cell-based, human; conditions: 48 h
# Method: as §1, §2
# HOP-62 = assay: NCI SRB cytotoxicity, Non-small-cell lung HOP-62; assay type: cell-based, human; conditions: HOP-62, Non-small-cell lung, 48 h
# Method: as §1, §2
# OVCAR-8 = assay: NCI SRB cytotoxicity, Ovarian OVCAR-8; assay type: cell-based, human; conditions: OVCAR-8, Ovarian, 48 h
# Method: as §1, §2
# HS578T = assay: NCI SRB cytotoxicity, Breast HS578T; assay type: cell-based, human; conditions: 48 h
# Method: as §1, §2
# SK-MEL-2 = assay: NCI SRB cytotoxicity, Melanoma SK-MEL-2; assay type: cell-based, human; conditions: SK-MEL-2, Melanoma, 48 h
# Method: as §1, §2
# U251 = assay: NCI SRB cytotoxicity, CNS U251; assay type: cell-based, human; conditions: 48 h
# Method: as §1, §2
# MCF7 = assay: NCI SRB cytotoxicity, Breast MCF7; assay type: cell-based, human; conditions: 48 h
# Method: as §1, §2
# KM-12 = assay: NCI SRB cytotoxicity, Colon KM-12; assay type: cell-based, human; conditions: KM-12, Colon, 48 h
# Method: as §1, §2
# MALME-3M = assay: NCI SRB cytotoxicity, Melanoma MALME-3M; assay type: cell-based, human; conditions: 48 h
# Method: as §1, §2
# NCI-H226 = assay: NCI SRB cytotoxicity, Non-small-cell lung NCI-H226; assay type: cell-based, human; conditions: 48 h
# Method: as §1, §2
# A549/ATCC = assay: NCI SRB cytotoxicity, Non-small-cell lung A549/ATCC; assay type: cell-based, human; conditions: 48 h
# Method: as §1, §2
# OVCAR-5 = assay: NCI SRB cytotoxicity, Ovarian OVCAR-5; assay type: cell-based, human; conditions: OVCAR-5, Ovarian, 48 h
# Method: as §1, §2
# HOP-92 = assay: NCI SRB cytotoxicity, Non-small-cell lung HOP-92; assay type: cell-based, human; conditions: HOP-92, Non-small-cell lung, 48 h
# Method: as §1, §2
# UACC-62 = assay: NCI SRB cytotoxicity, Melanoma UACC-62; assay type: cell-based, human; conditions: UACC-62, Melanoma, 48 h
# Method: as §1, §2
# NCI-H322 = assay: NCI SRB cytotoxicity, Non-small-cell lung NCI-H322; assay type: cell-based, human; conditions: 48 h
# Method: as §1, §2
# K-62 = assay: NCI SRB cytotoxicity, Leukemia K-62; assay type: cell-based, human; conditions: K-62, Leukemia, 48 h
# Method: as §1, §2
# HCT-116 = assay: NCI SRB cytotoxicity, Colon HCT-116; assay type: cell-based, human; conditions: HCT-116, Colon, 48 h
# Method: as §1, §2
# IGROVI = assay: NCI SRB cytotoxicity, Ovarian IGROVI; assay type: cell-based, human; conditions: 48 h
# HL-60(TB) = conditions: Leukemia, 48 h, SRB
# Method: as §1, §2
# SK-OV-3 = assay: NCI SRB cytotoxicity, Ovarian SK-OV-3; assay type: cell-based, human; conditions: SK-OV-3, Ovarian, 48 h
# Method: as §1, §2
# LOXIMVI = assay: NCI SRB cytotoxicity, Melanoma LOXIMVI; assay type: cell-based, human; conditions: 48 h
# Method: as §1, §2
smiles,measurement,setting,value
"COc1cc2c(cc1OCCCN1CCN(CCCOc3cc4c(cc3OC)C(=O)N3CCC[C@H]3C=N4)CC1)N=C[C@@H]1CCCN1C2=O [Compound VIb, 1,1′-{[(bispropane-1,N-diyl)piperazine]dioxy}bis[(11aS)-7-methoxy-1,2,3,11a-tetrahydro-5H-pyrrolo[2,1-c][1,4]benzodiazepin-5-one]]",Log GI 50,NCI-H23,−4.89 mol/L
same,Log LC 50,NCI-H23,−4.00 mol/L
same,Log GI 50,NCI-H522,−6.40 mol/L
same,Log LC 50,NCI-H522,−4.00 mol/L
same,Log GI 50,HOP-62,−5.14 mol/L
same,Log LC 50,HOP-62,−4.00 mol/L
same,Log GI 50,OVCAR-8,−4.48 mol/L
same,Log LC 50,OVCAR-8,−4.00 mol/L
same,Log GI 50,HS578T,−6.13 mol/L
same,Log LC 50,HS578T,−4.00 mol/L
same,Log GI 50,SK-MEL-2,−4.82 mol/L
same,Log LC 50,SK-MEL-2,−4.00 mol/L
same,Log GI 50,U251,−5.41 mol/L
same,Log LC 50,U251,−4.00 mol/L
same,Log GI 50,MCF7,−6.01 mol/L
same,Log LC 50,MCF7,−4.00 mol/L
same,Log GI 50,KM-12,−4.64 mol/L
same,Log LC 50,KM-12,−4.00 mol/L
same,Log GI 50,MALME-3M,−5.39 mol/L
same,Log GI 50,NCI-H226,−4.34 mol/L
same,Log LC 50,NCI-H226,−4.00 mol/L
same,Log GI 50,A549/ATCC,−4.37 mol/L
same,Log LC 50,A549/ATCC,−4.00 mol/L
same,Log GI 50,OVCAR-5,−5.06 mol/L
same,Log LC 50,OVCAR-5,−4.00 mol/L
same,Log GI 50,HOP-92,−6.81 mol/L
same,Log LC 50,HOP-92,−4.00 mol/L
same,Log GI 50,UACC-62,−4.68 mol/L
same,Log LC 50,UACC-62,−4.00 mol/L
same,Log GI 50,NCI-H322,−4.57 mol/L
same,Log LC 50,NCI-H322,−4.00 mol/L
same,Log GI 50,K-62,−5.76 mol/L
same,Log LC 50,K-62,−4.00 mol/L
same,Log GI 50,HCT-116,−4.92 mol/L
same,Log LC 50,HCT-116,−4.00 mol/L
same,Log GI 50,IGROVI,−5.26 mol/L
same,Log LC 50,IGROVI,−4.00 mol/L
same,Log GI 50,HL-60(TB),−6.66 mol/L
same,Log LC 50,HL-60(TB),−4.00 mol/L
"COc1cc2c(cc1OCCN1CCN(CCOc3cc4c(cc3OC)C(=O)N3CCC[C@H]3C=N4)CC1)N=C[C@@H]1CCCN1C2=O [Compound VIa, 1,1′-{[(bisethane-1,N-diyl)piperazine]dioxy}bis[(11aS)-7-methoxy-1,2,3,11a-tetrahydro-5H-pyrrolo[2,1-c][1,4]benzodiazepin-5-one]]",Log GI 50,NCI-H23,−4.76 mol/L
same,Log LC 50,NCI-H23,−4.00 mol/L
same,Log GI 50,NCI-H522,−4.94 mol/L
same,Log LC 50,NCI-H522,−4.00 mol/L
same,Log GI 50,HOP-62,−4.46 mol/L
same,Log LC 50,HOP-62,−4.00 mol/L
same,Log GI 50,OVCAR-8,−4.58 mol/L
same,Log LC 50,OVCAR-8,−4.00 mol/L
same,Log GI 50,HS578T,−4.34 mol/L
same,Log LC 50,HS578T,−4.00 mol/L
same,Log GI 50,SK-MEL-2,−4.57 mol/L
same,Log LC 50,SK-MEL-2,−4.00 mol/L
same,Log GI 50,U251,−4.87 mol/L
same,Log LC 50,U251,−4.00 mol/L
same,Log GI 50,MCF7,−4.88 mol/L
same,Log LC 50,MCF7,−4.00 mol/L
same,Log GI 50,KM-12,−4.70 mol/L
same,Log LC 50,KM-12,−4.04 mol/L
same,Log GI 50,MALME-3M,−5.46 mol/L
same,Log LC 50,MALME-3M,−4.17 mol/L
same,Log GI 50,NCI-H226,−4.80 mol/L
same,Log LC 50,NCI-H226,−4.00 mol/L
same,Log GI 50,A549/ATCC,−4.10 mol/L
same,Log LC 50,A549/ATCC,−4.00 mol/L
same,Log GI 50,OVCAR-5,−4.65 mol/L
same,Log LC 50,OVCAR-5,−4.00 mol/L
same,Log GI 50,HOP-92,−4.68 mol/L
same,Log LC 50,HOP-92,−4.00 mol/L
same,Log GI 50,UACC-62,−4.83 mol/L
same,Log LC 50,UACC-62,−4.00 mol/L
same,Log GI 50,NCI-H322,−4.51 mol/L
same,Log LC 50,NCI-H322,−4.00 mol/L
same,Log GI 50,K-62,−4.58 mol/L
same,Log LC 50,K-62,−4.00 mol/L
same,Log GI 50,HCT-116,−4.47 mol/L
same,Log LC 50,HCT-116,−4.00 mol/L
same,Log GI 50,SK-OV-3,−4.00 mol/L
same,Log LC 50,SK-OV-3,−4.00 mol/L
same,Log GI 50,IGROVI,−4.21 mol/L
same,Log LC 50,IGROVI,−4.00 mol/L
same,Log GI 50,HL-60(TB),−5.49 mol/L
same,Log LC 50,HL-60(TB),−4.00 mol/L
"COc1cc2c(cc1OCCCCN1CCN(CCCCOc3cc4c(cc3OC)C(=O)N3CCC[C@H]3C=N4)CC1)N=C[C@@H]1CCCN1C2=O [Compound VIc, 1,1′-{[(bisbutane-1,N-diyl)piperazine]dioxy}bis[(11aS)-7-methoxy-1,2,3,11a-tetrahydro-5H-pyrrolo[2,1-c][1,4]benzodiazepin-5-one]]",Log LC 50,NCI-H23,−5.59 mol/L
same,Log LC 50,NCI-H522,−4.00 mol/L
same,Log LC 50,HOP-62,−4.00 mol/L
same,Log LC 50,OVCAR-8,−4.00 mol/L
same,Log GI 50,HS578T,−7.30 mol/L
same,Log LC 50,HS578T,−4.00 mol/L
same,Log GI 50,SK-MEL-2,−7.34 mol/L
same,Log LC 50,SK-MEL-2,−4.00 mol/L
same,Log LC 50,U251,−4.41 mol/L
same,Log LC 50,MCF7,−4.00 mol/L
same,Log GI 50,KM-12,−7.84 mol/L
same,Log LC 50,KM-12,−4.67 mol/L
same,Log LC 50,MALME-3M,−7.41 mol/L
same,Log LC 50,NCI-H226,−4.00 mol/L
same,Log GI 50,A549/ATCC,−7.23 mol/L
same,Log LC 50,A549/ATCC,−4.00 mol/L
same,Log GI 50,OVCAR-5,−7.92 mol/L
same,Log LC 50,OVCAR-5,−4.00 mol/L
same,Log LC 50,HOP-92,−4.00 mol/L
same,Log LC 50,UACC-62,−7.35 mol/L
same,Log GI 50,NCI-H322,−7.59 mol/L
same,Log LC 50,NCI-H322,−4.00 mol/L
same,Log GI 50,K-62,−7.63 mol/L
same,Log LC 50,K-62,−4.00 mol/L
same,Log GI 50,HCT-116,−6.42 mol/L
same,Log LC 50,HCT-116,−4.00 mol/L
same,Log LC 50,SK-OV-3,−4.00 mol/L
same,Log GI 50,IGROVI,−6.79 mol/L
same,Log LC 50,IGROVI,−4.00 mol/L
same,Log LC 50,HL-60(TB),−4.00 mol/L
COc1cc2c(cc1OCCCCCN1CCN(CCCCCOc3cc4c(cc3OC)C(=O)N3CCC[C@H]3C=N4)CC1)N=C[C@@H]1CCCN1C2=O [Compound VId],Log GI 50,NCI-H23,−5.18 mol/L
same,Log LC 50,NCI-H23,−4.00 mol/L
same,Log GI 50,NCI-H522,−5.47 mol/L
same,Log LC 50,NCI-H522,−4.00 mol/L
same,Log GI 50,HOP-62,−4.00 mol/L
same,Log LC 50,HOP-62,−4.00 mol/L
same,Log GI 50,OVCAR-8,−4.67 mol/L
same,Log LC 50,OVCAR-8,−4.00 mol/L
same,Log GI 50,HS578T,−5.12 mol/L
same,Log LC 50,HS578T,−4.00 mol/L
same,Log GI 50,U251,−5.47 mol/L
same,Log LC 50,U251,−4.00 mol/L
same,Log GI 50,MCF7,−5.69 mol/L
same,Log LC 50,MCF7,−4.00 mol/L
same,Log GI 50,LOXIMVI,−5.61 mol/L
same,Log LC 50,LOXIMVI,−4.00 mol/L
same,Log GI 50,KM-12,−5.25 mol/L
same,Log LC 50,KM-12,−4.00 mol/L
same,Log GI 50,NCI-H226,−5.30 mol/L
same,Log LC 50,NCI-H226,−4.00 mol/L
same,Log GI 50,A549/ATCC,−4.66 mol/L
same,Log LC 50,A549/ATCC,−4.00 mol/L
same,Log GI 50,OVCAR-5,−5.33 mol/L
same,Log LC 50,OVCAR-5,−4.00 mol/L
same,Log GI 50,HOP-92,−5.46 mol/L
same,Log LC 50,HOP-92,−4.00 mol/L
same,Log GI 50,UACC-62,−5.64 mol/L
same,Log LC 50,UACC-62,−4.00 mol/L
same,Log GI 50,NCI-H322,−4.65 mol/L
same,Log LC 50,NCI-H322,−4.00 mol/L
same,Log GI 50,K-62,−5.46 mol/L
same,Log LC 50,K-62,−4.20 mol/L
same,Log GI 50,HCT-116,−4.00 mol/L
same,Log LC 50,HCT-116,−4.00 mol/L
same,Log GI 50,IGROVI,−5.13 mol/L
same,Log LC 50,IGROVI,−4.00 mol/L
same,Log GI 50,HL-60(TB),−5.38 mol/L
same,Log LC 50,HL-60(TB),−4.00 mol/L
